Results: PubChem BioAssay AID463222 (The Scripps Research Institute Molecular Screening Center, 2010)
Calls of active or inactive are those of the source. How the calls were made is not given here.

Biological target: Serine/threonine-protein phosphatase 5 (Homo sapiens) (UniProt P53041)
Experiment: PP5 phosphatase inhibitors, OMFP substrate, late-stage follow-up, biochemical, fluorescence, single concentration (AID 463222)
Details: PP5 OMFP dephosphorylation, at 6.7 µM, stronger effect = higher value

Chain of Serine/threonine-protein phosphatase 5 (Homo sapiens) (P53041 whole entry, looked up): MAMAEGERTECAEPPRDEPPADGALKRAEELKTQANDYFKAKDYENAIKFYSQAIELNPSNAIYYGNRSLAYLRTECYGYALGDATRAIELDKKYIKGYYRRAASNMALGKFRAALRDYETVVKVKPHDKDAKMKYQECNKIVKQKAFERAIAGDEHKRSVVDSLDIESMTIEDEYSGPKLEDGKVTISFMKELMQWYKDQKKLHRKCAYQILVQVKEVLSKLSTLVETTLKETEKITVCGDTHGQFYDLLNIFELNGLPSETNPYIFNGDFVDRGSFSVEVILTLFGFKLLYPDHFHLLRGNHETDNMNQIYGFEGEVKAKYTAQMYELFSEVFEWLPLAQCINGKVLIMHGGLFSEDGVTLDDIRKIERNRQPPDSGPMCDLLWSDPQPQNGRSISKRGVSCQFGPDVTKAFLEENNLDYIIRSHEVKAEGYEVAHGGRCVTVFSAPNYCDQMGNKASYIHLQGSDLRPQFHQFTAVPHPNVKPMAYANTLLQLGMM

Row | SMILES | inhibition
1 | CCOC(=O)C1=C(C)OC2(O)c3ccccc3C(=O)C12O (stereo not given) | 11.2% (inactive)
2 | CCOC(=O)c1sc(N2C(=O)C(O)=C(C(=O)c3ccco3)C2c2cccc([N+](=O)[O-])c2)nc1C (stereo not given) | -2.08% (inactive)
3 | CCOC(=O)c1cnc(-n2nc(C)cc2C)nc1NC(C)c1ccccc1 (stereo not given) | 5.83% (inactive)
4 | Cc1ccc(C(=O)NC2(O)C(=O)c3ccccc3C2=O)cc1C | 6.31% (inactive)
5 | CCn1c2ccccc2c2cc(NC(=O)COC(=O)c3ccc(NC(=O)CC#N)cc3)ccc21 | -3.03% (inactive)
6 | Oc1cccc(/C=N/Nc2cc(N3CCCC3)nc(N3CCCC3)n2)c1 | 9.26% (inactive)
7 | CC(=O)C(C(C)=O)C1(O)C(=O)c2ccccc2C1=O | 6.75% (inactive)
8 | O=C1CCCC2=C1C1(O)C(=O)c3ccccc3C1(O)O2 (stereo not given) | 9.53% (inactive)
9 | CCOC(=O)c1cnc(-n2nc(C)cc2C)nc1NCCc1ccccc1 | 6.83% (inactive)
10 | CCOC(=O)c1nn(-c2ccc(C)cc2)c(=O)c2c(N)scc12 | -0.12% (inactive)
11 | Oc1ccc(/C=N/Nc2cc(N3CCOCC3)nc(N3CCOCC3)n2)c(O)c1 | 11.4% (inactive)
12 | COc1cnc(-c2ccccn2)nc1Oc1cccc(C(F)(F)F)c1 | -5.73% (inactive)
13 | COc1ccc(CN2C(=O)Cc3c2nc(N)c2c(N)nc(N4CCCCC4)c(C#N)c32)cc1 | 1.97% (inactive)
14 | c1ccc(Nc2nc(-c3ccccn3)cs2)cc1 | 2.82% (inactive)
15 | c1ccc(-c2nccc(-c3ccc(-n4cnc5ccccc54)cc3)n2)nc1 | 6.97% (inactive)
16 | Cc1[nH]n(-c2ccccc2)c(=O)c1C(c1ccc([N+](=O)[O-])cc1)c1c(C)[nH]n(-c2ccccc2)c1=O | -3.88% (inactive)
17 | COc1ccc(C(=O)c2nccc3cc(OC)c(OC)cc23)cc1OC | 2.42% (inactive)
18 | Nc1nc(-c2ccccn2)nc(N)c1Cc1ccc(Cl)cc1Cl | 2.71% (inactive)
19 | Cc1ccc(-n2nc(C(=O)O)cc2-c2ccc(Cl)cc2)cc1 | -5.42% (inactive)
20 | COc1cnc(-c2ccccn2)nc1Oc1cccc(Cl)c1 | 0.53% (inactive)
21 | COc1cnc(-c2ccccn2)nc1Sc1ccccc1Cl | 3.05% (inactive)
22 | CCOC(=O)c1cnc(-n2nc(C)cc2C)nc1NC1CCCCC1 | 3.66% (inactive)

Row | SMILES | inhibition
23 | O=C(O)c1cc(-c2ccc(Cl)c(Cl)c2)n(-c2ccccc2)n1 | -2.01% (inactive)
24 | CCOc1ccc(NC(=S)Nc2ccc3nsnc3c2)cc1 | 3.93% (inactive)
25 | O=C(O)c1n[nH]nc1-c1ccccc1 | 53.4%
26 | N#Cc1c(-c2ccc(Cl)cc2)cc(-c2cccs2)nc1SCC(=O)O | -2.49% (inactive)
27 | COc1ccc(Sc2nc(-c3ccccn3)ncc2OC)cc1 | 3.64% (inactive)
28 | O=C1Nc2ccccc2N2CCCC12 (stereo not given) | -3.11% (inactive)
29 | O=C(NC1(O)C(=O)c2ccccc2C1=O)c1ccccc1 | 4.22% (inactive)
30 | CN1CCN(C(c2ccccn2)c2cc(Cl)c3cccnc3c2O)CC1 (stereo not given) | 8.11% (inactive)
31 | O=S(=O)(Cc1cc(NCc2ccccc2)nc(-c2ccccn2)n1)c1ccccc1 | 4.59% (inactive)
32 | CCOC(=O)c1cnc(-n2cc(C)cn2)nc1NCc1ccc2c(c1)OCO2 | 2.2% (inactive)
33 | O=C(O)c1cc(-c2ccc(Cl)c(Cl)c2)n(-c2ccc(F)cc2)n1 | -3.2% (inactive)
34 | COc1ccccc1Sc1nc(-c2ccccn2)ncc1OC | -3.47% (inactive)
35 | Clc1ccc(-n2nnnc2-c2cnc(-c3ccccn3)nc2-c2cccs2)cc1 | -2.47% (inactive)
36 | COc1cc(Br)c(C(=O)c2nccc3cc(OC)c(OC)cc23)cc1OC | 1.12% (inactive)
37 | O=C(O)c1cc(-c2ccc(Cl)cc2)n(-c2cccc(Cl)c2)n1 | -5.16% (inactive)
38 | CC(C)(CS(=O)(=O)[O-])NC(=O)CC[N+](C)(C)CCO | 0.86% (inactive)
39 | COc1cnc(-c2ccccn2)nc1Sc1ccc(F)cc1 | 5.48% (inactive)
40 | Cc1nnc(NC(=O)C2C3C=CC(O3)C2C(=O)O)s1 (stereo not given) | 22.3%
41 | Nc1cc2nsnc2cc1Br | 0.76% (inactive)
42 | COc1ccc(Cl)cc1C(=O)Nc1cccc(-c2ccc3nncn3n2)c1 | -0.16% (inactive)
43 | Cc1cc(C)c(S(=O)(=O)/N=C2\C=C(Sc3ncn[nH]3)C(=O)c3ccccc32)cc1C | 4.08% (inactive)
44 | N#Cc1c(N2CCCC(O)C2)nc(N)c2c(N)nc3c(c12)CC(=O)N3C12CC3CC(CC(C3)C1)C2 (stereo not given) | 2.54% (inactive)

Row | SMILES | inhibition
45 | CCCCN(CC)c1nc(N)c2c(N)nc(OCC)cc2c1C#N | 0.32% (inactive)
46 | COc1cnc(-c2ccccn2)nc1Sc1ccc(Cl)cc1 | 4.61% (inactive)
47 | Cc1ccc(C(=O)NNc2cc(N3CCCC3)nc(N3CCCC3)n2)cc1 | 8.52% (inactive)
48 | O=C(Nc1nc(-c2ccccn2)cs1)C1CC(=O)N(c2ccc3c(c2)OCCO3)C1 (stereo not given) | 2.9% (inactive)
49 | O=C(O)C1C2CCC(O2)C1C(=O)NC1CCCCC1 (stereo not given) | 42.5%
50 | CCOC(=O)c1cnc(-n2nc(C)cc2C)nc1NCc1ccccc1 | 3.84% (inactive)
51 | O=C(NC1(O)C(=O)c2ccccc2C1=O)c1ccc(C(F)(F)F)cc1 | 11.6% (inactive)
52 | CCCCn1c(NC(=O)c2ccco2)c(C(=O)OCC)c2nc3ccccc3nc21 | 2.48% (inactive)
53 | COc1ccc(Cn2c(N)c(C(=O)NCc3ccco3)c3nc4ccccc4nc32)cc1OC | 2.29% (inactive)
54 | COc1ccc2c(Cl)c(C(=O)N/N=C/c3ccc4c(c3)OCO4)sc2c1 | -2.37% (inactive)
55 | COc1cnc(-c2ccccn2)nc1Sc1cccc(Cl)c1 | 4.14% (inactive)
56 | O=c1[nH]c(Nc2ccccc2)cc2ccccc12 | 4.67% (inactive)
57 | COc1cnc(-c2ccccn2)nc1Sc1ccc(C)cc1 | 2.23% (inactive)
58 | CCOC(=O)c1sc2nc3c(SCC(=O)O)cc(C(=O)c4cc(F)ccc4O)cn3c(=O)c2c1C | -0.13% (inactive)
59 | COc1ccc(NC(=O)C2C3CCC(O3)C2C(=O)O)c(OC)c1 (stereo not given) | 51.1%
60 | COc1ccc(OCCCC(=O)Nc2nc(-c3ccccn3)cs2)cc1 | 5.93% (inactive)
61 | CCCN(CC1CC1)c1nc(N)c2c(N)nc(OC)cc2c1C#N | 2.08% (inactive)
62 | COc1ccc(NC(=S)Nc2ccc3nsnc3c2)cc1 | 2.75% (inactive)
63 | O=C(NC1(O)C(=O)c2ccccc2C1=O)c1c(Cl)cccc1Cl | 8.39% (inactive)
64 | Oc1ccccc1/C=N/Nc1cc(N2CCCC2)nc(N2CCCC2)n1 | 7.43% (inactive)
65 | COc1cnc(-c2ccccn2)nc1Sc1ccccc1 | 3.72% (inactive)
